These results are taken from US10667517B2, “2-(Het)aryl-substituted fused heterocycle derivatives as pesticides” (BAYER CROPSCIENCE AKTIENGESELLSCHSAFT, priority 2015, dated 2020).

Data set [1] is described as follows: log P (neutral), HPLC on reversed-phase column (C 18), LC-MS neutral range. Format: physicochemical. The settings on record: pH 7.8, ammonium hydrogencarbonate/acetonitrile; for chromatographic logP: reversed-phase HPLC column (C 18), pH 7.8, HPLC reversed-phase C 18, 55° C.; for log P (neutral): HPLC reversed-phase C 18, 55° C. The procedure:
Temperature: 55° C. […] Called log P (neutral) in the table.

Another data set concerns Phaedon cochleariae. In words: Phaedon cochleariae - spray test. Format: in vivo. The settings on record: application rate 500 g/ha, mustard beetle larvae on Chinese cabbage leaf discs, after 7 days; for pest or weed control at 500 g/ha: Phaedon cochleariae, foliar, 168 h, read-out: efficacy. The procedure:
Phaedon cochleariae—Spray Test
(§1) • Solvent: 78.0 parts by weight of acetone • 1.5 parts by weight of dimethylformamide • Emulsifier: alkylaryl polyglycol ether
(§2) To produce a suitable active compound preparation, 1 part by weight of active compound is dissolved with the stated parts by weight of solvent and made up with water containing an emulsifier concentration of 1000 ppm until the desired concentration is attained. To produce further test concentrations, the preparation is diluted with emulsifier-containing water.
After 7 days, the efficacy in % is determined. 100% means that all the beetle larvae have been killed; 0% means that no beetle larvae have been killed.

The subject of the next data set is Spodoptera frugiperda. As to the kind of experiment: Spodoptera frugiperda - spray test. Format: in vivo. The settings on record: armyworm caterpillars on maize leaf discs, after 7 days. How it is done:
Spodoptera frugiperda—Spray Test
as §1, §2
Leaf discs of maize (Zea mays) are sprayed with an active compound preparation of the desired concentration and, after drying, populated with caterpillars of the armyworm (Spodoptera frugiperda).
After 7 days, the efficacy in % is determined. 100% means that all the caterpillars have been killed; 0% means that no caterpillars have been killed.

A further data set concerns Myzus persicae. In words: Myzus persicae - spray test. The format is in vivo. The settings on record: all stages of green peach aphid on Chinese cabbage leaf discs, after 5-6 days. How it is done:
Myzus persicae—Spray Test
• Solvent: 78 parts by weight of acetone • 1.5 parts by weight of dimethylformamide • Emulsifier: alkylaryl polyglycol ether
as §2
Discs of Chinese cabbage leaves (Brassica pekinensis) infested by all stages of the green peach aphid (Myzus persicae) are sprayed with an active compound preparation of the desired concentration.
After 5-6 days, the efficacy in % is determined. 100% means that all the aphids have been killed; 0% means that no aphids have been killed.

The next data set relates to Lucilia cuprina. In words: Lucilia cuprina test. Format: in vivo. The settings on record: application rate 100 ppm; L1 larvae in minced horsemeat; after 2 days. The procedure:
Lucilia cuprina Test • Solvent: dimethyl sulphoxide To produce a suitable active compound preparation, 10 mg of active compound are mixed with 0.5 ml of dimethyl sulphoxide, and the concentrate is diluted with water to the desired concentration. About 20 L1 larvae of the Australian sheep blowfly (Lucilia cuprina) are transferred into a test vessel containing minced horsemeat and the active compound preparation of the desired concentration. After 2 days, the kill in % is determined. 100% means that all the larvae have been killed; 0% means that no larvae have been killed.

Data set [2] has as its system Ctenocephalides felis. In words: Ctenocephalides felis - in vitro contact tests with adult cat fleas. Format: in vivo. The settings on record: application rate 5 μg/cm^2 (500 g/ha); adult cat fleas in coated tubes; after 48 h; dead or moribund. The procedure:
Ctenocephalides felis—In Vitro Contact Tests with Adult Cat Fleas
For the coating of the test tubes, 9 mg of active compound are first dissolved in 1 ml of acetone p.a. and then diluted to the desired concentration with acetone p.a. 250 μl of the solution are distributed homogeneously on the inner walls and the base of a 25 ml test tube by turning and rocking on an orbital shaker (rocking rotation at 30 rpm for 2 h). With 900 ppm active compound solution and internal surface 44.7 cm^2, given homogeneous distribution, an area-based dose of 5 μg/cm^2 is achieved.
After the solvent has evaporated off, the tubes are populated with 5-10 adult cat fleas (Ctenocephalides felis), sealed with a perforated plastic lid and incubated in a horizontal position at room temperature and ambient humidity. After 48 h, efficacy is determined. To this end, the test tubes are stood upright and the fleas are knocked to the base of the tube. Fleas which remain motionless at the base or move in an uncoordinated manner are considered to be dead or moribund.
100% efficacy means that all the fleas were dead or moribund. 0% efficacy means that no fleas were harmed.

The test system of data set [3] is Ctenocephalides felis. In words: Ctenocephalides felis - oral test. The format is in vivo. The settings on record: application rate 100 ppm in citrated cattle blood; adult cat fleas; after 2 days. The procedure:
Ctenocephalides felis—Oral Test • Solvent: dimethyl sulphoxide To produce a suitable active compound preparation, 10 mg of active compound are mixed with 0.5 ml of dimethyl sulphoxide. Dilution with citrated cattle blood gives the desired concentration. About 20 unfed adult cat fleas (Ctenocephalides felis) are placed into a chamber which is closed at the top and bottom with gauze. A metal cylinder whose bottom end is closed with parafilm is placed onto the chamber. The cylinder contains the blood/active compound preparation, which can be imbibed by the fleas through the parafilm membrane. After 2 days, the kill in % is determined. 100% means that all of the fleas have been killed; 0% means that none of the fleas have been killed.

A further data set concerns Musca domestica. In words: Musca domestica test. The format is in vivo. The settings on record: application rate 100 ppm; adult houseflies, sponge with sugar solution; after 2 days. The procedure:
Musca domestica Test • Solvent: dimethyl sulphoxide To produce a suitable active compound preparation, 10 mg of active compound are mixed with 0.5 ml of dimethyl sulphoxide, and the concentrate is diluted with water to the desired concentration. Vessels containing a sponge treated with sugar solution and the active compound preparation of the desired concentration are populated with 10 adult houseflies (Musca domestica). After 2 days, the kill in % is determined. 100% means that all of the flies have been killed; 0% means that none of the flies have been killed.

Data set [4] is described as follows: log P (acidic), HPLC on reversed-phase column (C 18), LC-MS acidic range. The settings on record: HPLC reversed-phase C 18, 55° C., pH 2.7, 0.1% formic acid/acetonitrile; for chromatographic logP: reversed-phase HPLC column (C 18). The format is physicochemical. From the text: Called log P (HCOOH) in the table.

As usually defined, the chromatographic logP is a lipophilicity value derived from retention on a column. Higher therefore signals a more lipophilic compound. `CCS(=O)(=O)c1ccc(-n2cc(C(F)(F)F)cn2)nc1-c1nc2cc(C(F)(F)F)ccc2n1C` [Example I-1, 2-{3-(Ethylsulphonyl)-6-[4-(trifluoromethyl)-1H-pyrazol-1-yl]pyridin-2-yl}-1-methyl-5-(trifluoromethyl)-1H-benzimidazole] registered a chromatographic logP in data set [1] of 4.16. Also, in the data set with Phaedon cochleariae, the pest or weed control at 500 g/ha is 100%. Also, the efficacy in the data set on Spodoptera frugiperda (application rate 500 g/ha) is on record as 100%.

Consider `CCS(=O)(=O)c1ccc(N)nc1-c1nc2cc(C(F)(F)F)ccc2n1C` [Example I-3, 5-(Ethylsulphonyl)-6-[1-methyl-5-(trifluoromethyl)-1H-benzimidazol-2-yl]pyridin-2-amine], for which, in data set [1], the chromatographic logP amounted to 2.18. Moreover, in the data set on Phaedon cochleariae, the pest or weed control at 500 g/ha was 100%. The efficacy in the data set with Myzus persicae (application rate 500 g/ha) came to 100%.

Turning to `CCS(=O)(=O)c1ccc(NC(C)=O)nc1-c1nc2cc(C(F)(F)F)cnc2n1C` [Example I-5, N-{5-(Ethylsulphonyl)-6-[3-methyl-6-(trifluoromethyl)-3H-imidazo[4,5-b]pyridin-2-yl]pyridin-2-yl}acetamide], in data set [1], the chromatographic logP is 2.3. Besides, the pest or weed control at 500 g/ha in the data set on Phaedon cochleariae came to 100%. The efficacy in the data set with Spodoptera frugiperda (application rate 100 g/ha) amounted to 100%; in the data set with Myzus persicae (application rate 500 g/ha), 90%.

For the compound `CCS(=O)(=O)c1ccc(NC(C)=O)nc1-c1nc2cc3c(cc2n1C)OC(F)(F)O3` [Example I-7, N-[6-(2,2-Difluoro-7-methyl-[1,3]dioxolo[4,5-f]benzimidazol-6-yl)-5-ethylsulphonyl-2-pyridyl]acetamide], in [1], the chromatographic logP is 2.42. The pest or weed control at 500 g/ha with Phaedon cochleariae amounted to 100%. Besides, the efficacy in the data set with Spodoptera frugiperda (application rate 500 g/ha) turned out to be 83%.

For the compound `CCS(=O)(=O)c1ccc(-n2ccc(C(F)(F)F)n2)nc1-c1nc2cc(C(F)(F)F)ccc2n1C` [Example I-9], in data set [1], the “log P (neutral)” value is 4.21. Besides, the results for the efficacy with Spodoptera frugiperda (application rate 500 g/ha) and with Myzus persicae (application rate 100 g/ha) were 100% and 90%, respectively. Besides, the “efficacy (kill)” value in the data set with Lucilia cuprina is 100%.

Take `CCS(=O)(=O)c1ccc(NC(=O)C2CC2)nc1-c1nc2cc(C(F)(F)F)ccc2n1C` [Example I-10]: in [1], the “log P (neutral)” value is 2.92. Moreover, the efficacy in the data set on Phaedon cochleariae, with Spodoptera frugiperda (application rate 500 g/ha) and in the data set on Ctenocephalides felis [2] was 100% each time. Moreover, the “efficacy (kill)” value in the data set with Ctenocephalides felis [3] was determined as 100%; in the data set on Lucilia cuprina it was 95%.

On to `CC[S+]([O-])c1ccc(-n2cc(C(F)(F)F)cn2)nc1-c1nc2cc(C(F)(F)F)cnc2n1C` (stereo not drawn) [Example I-12], for which the “log P (neutral)” value in data set [1] is recorded as 4.23. In addition, the efficacy in the data set on Spodoptera frugiperda (application rate 500 g/ha) was determined as 100%.

Consider `CCS(=O)(=O)c1ccc(-n2ccc(C(F)(F)F)n2)nc1-c1nc2cc(C(F)(F)F)cnc2n1C` [Example I-13], for which the efficacy with Phaedon cochleariae and in the data set with Spodoptera frugiperda (application rate 500 g/ha) was 100% throughout. Also, the “efficacy (kill)” value is 100% in the data set on Lucilia cuprina and 80% with Musca domestica.

Turning to `CCS(=O)(=O)c1ccc(-n2cc(Cl)cn2)nc1-c1nc2cc(C(F)(F)F)cnc2n1C` [Example I-14], the “log P (neutral)” value in data set [1] was 3.9. Further, the efficacy in the data set with Phaedon cochleariae and in the data set with Spodoptera frugiperda (application rate 500 g/ha) was 100% each time. Besides, the “efficacy (kill)” value in the data set on Lucilia cuprina came to 100%.

As to `CCS(=O)(=O)c1ccc(NC(=O)C2CC2)nc1-c1nc2cc(C(F)(F)F)cnc2n1C` [Example I-16], the “log P (neutral)” value in data set [1] came out at 2.76. The efficacy in the data set on Phaedon cochleariae, in the data set on Spodoptera frugiperda (application rate 500 g/ha) and in the data set with Myzus persicae (application rate 500 g/ha) was 100% throughout.

In turn, `CCS(=O)(=O)c1ccc(-n2cc(Cl)cn2)nc1-c1cn2cnc(C(F)(F)F)cc2n1` [Example I-17, 2-[6-(4-Chloro-1H-pyrazol-1-yl)-3-(ethylsulphonyl)pyridin-2-yl]-7-(trifluoromethyl)imidazo[1,2-c]pyrimidine] returned a chromatographic logP in data set [1] of 3.46. Also, in the data set with Phaedon cochleariae, the pest or weed control at 500 g/ha turned out to be 100%. Further, the efficacy with Spodoptera frugiperda (application rate 500 g/ha) is given as 100%.

In the case of `CCS(=O)(=O)c1ccc(NC(=O)CSC)nc1-c1nc2cc(C(F)(F)F)cnc2n1C` [Example I-20], the “log P (neutral)” value in data set [1] is on record as 2.79. The efficacy in the data set on Phaedon cochleariae turned out to be 100%; in the data set with Myzus persicae (application rate 500 g/ha) it was 90%.

`CCS(=O)(=O)c1ccc(-n2nccn2)nc1-c1nc2cc(C(F)(F)F)cnc2n1C` [Example I-23]: the “log P (neutral)” value in data set [1] is 2.66. The efficacy in the data set with Phaedon cochleariae worked out at 100%; in the data set with Spodoptera frugiperda (application rate 500 g/ha), 100%; in the data set on Myzus persicae (application rate 500 g/ha), 90%.

As for `CCS(=O)(=O)c1ccc(-n2cc(F)cn2)nc1-c1nc2cc(C(F)(F)F)cnc2n1C` [Example I-24], the “log P (neutral)” value in data set [1] is reported as 3.55. Besides, the efficacy worked out at 100% in the data set on Phaedon cochleariae, 100% with Spodoptera frugiperda (application rate 500 g/ha) and 90% with Myzus persicae (application rate 500 g/ha).

Consider `CCS(=O)(=O)c1ccc(NC(=O)C(C)CSC)nc1-c1nc2cc(C(F)(F)F)cnc2n1C` (stereo not drawn) [Example I-25], for which the efficacy in the data set on Phaedon cochleariae was 100%; in the data set with Myzus persicae (application rate 500 g/ha), 90%.

Regarding `CCS(=O)(=O)c1ccc(-n2ccc(C(F)(F)F)n2)nc1-c1cn2cnc(C(F)(F)F)cc2n1` [Example I-29], the efficacy in the data set with Phaedon cochleariae and in the data set with Spodoptera frugiperda (application rate 500 g/ha) was 100% each time.

Regarding `CCS(=O)(=O)c1ccc(-n2cc(F)cn2)nc1-c1cn2cnc(C(F)(F)F)cc2n1` [Example I-30], the “log P (acidic)” value in data set [4] came out at 3.13.

With `CCS(=O)(=O)c1ccc(N)nc1-c1cn2cnc(C(F)(F)F)cc2n1` [Example I-31], the “log P (neutral)” value in data set [1] is 1.59. Besides, the values for the efficacy with Phaedon cochleariae, in the data set on Spodoptera frugiperda (application rate 500 g/ha) and in the data set with Myzus persicae (application rate 500 g/ha) were 100%, 100% and 90%, respectively.

For `CCS(=O)(=O)c1ccc(NC(C)=O)nc1-c1cn2cnc(C(F)(F)F)cc2n1` [Example I-32], the “log P (neutral)” value in data set [1] was found to be 1.99. The efficacy in the data set with Phaedon cochleariae worked out at 100%; in the data set on Spodoptera frugiperda (application rate 500 g/ha), 80%; in the data set on Myzus persicae (application rate 500 g/ha), 90%.

In the case of `CCS(=O)(=O)c1ccc(C(=O)NC)nc1-c1cn2cnc(C(F)(F)F)cc2n1` [Example I-38, 5-(Ethylsulphonyl)-N-methyl-6-[7-(trifluoromethyl)imidazo[1,2-c]pyrimidin-2-yl]pyridine-2-carboxamide], in [4], the chromatographic logP came out at 1.95.

In data set [4], `Fc1ccc(F)c(-c2cn3cc(C(F)(F)F)ncc3n2)n1` [IX-6, 2-(3,6-Difluoropyridin-2-yl)-6-(trifluoromethyl)imidazo[1,2-a]pyrazine] returned a chromatographic logP of 2.05. The chromatographic logP values of the last two compounds are within 0.2 log units of each other.
